Laboratory results from ChEMBL document CHEMBL5649166, “RIP3 induces apoptosis independent of pronecrotic kinase activity” (Mol Cell, 2014).

Key:
[1] = target: Serine/threonine-protein kinase Nek4 (Homo sapiens) (UniProt P51957); experiment: Inhibition of human NEK4 using myelin basic protein as substrate at 1 uM in presence of 32P-ATP by Hotspot assay relative to control; values are per cent of control
[2] = target: CDK6/cyclin D1 (Homo sapiens) (UniProt P24385+Q00534); experiment: Inhibition of human CDK6/cyclin D1 using RB Protein as substrate at 1 uM in presence of 32P-ATP by Hotspot assay relative to control; values are per cent of control
[3] = target: Ribosomal protein S6 kinase alpha-2 (Homo sapiens) (UniProt Q15349); experiment: Inhibition of human RSK3 using KKLNRTLSVA as substrate at 1 uM in presence of 32P-ATP by Hotspot assay relative to control; values are per cent of control
Sequence of Ribosomal protein S6 kinase alpha-2 (Homo sapiens) (Q15349 whole entry): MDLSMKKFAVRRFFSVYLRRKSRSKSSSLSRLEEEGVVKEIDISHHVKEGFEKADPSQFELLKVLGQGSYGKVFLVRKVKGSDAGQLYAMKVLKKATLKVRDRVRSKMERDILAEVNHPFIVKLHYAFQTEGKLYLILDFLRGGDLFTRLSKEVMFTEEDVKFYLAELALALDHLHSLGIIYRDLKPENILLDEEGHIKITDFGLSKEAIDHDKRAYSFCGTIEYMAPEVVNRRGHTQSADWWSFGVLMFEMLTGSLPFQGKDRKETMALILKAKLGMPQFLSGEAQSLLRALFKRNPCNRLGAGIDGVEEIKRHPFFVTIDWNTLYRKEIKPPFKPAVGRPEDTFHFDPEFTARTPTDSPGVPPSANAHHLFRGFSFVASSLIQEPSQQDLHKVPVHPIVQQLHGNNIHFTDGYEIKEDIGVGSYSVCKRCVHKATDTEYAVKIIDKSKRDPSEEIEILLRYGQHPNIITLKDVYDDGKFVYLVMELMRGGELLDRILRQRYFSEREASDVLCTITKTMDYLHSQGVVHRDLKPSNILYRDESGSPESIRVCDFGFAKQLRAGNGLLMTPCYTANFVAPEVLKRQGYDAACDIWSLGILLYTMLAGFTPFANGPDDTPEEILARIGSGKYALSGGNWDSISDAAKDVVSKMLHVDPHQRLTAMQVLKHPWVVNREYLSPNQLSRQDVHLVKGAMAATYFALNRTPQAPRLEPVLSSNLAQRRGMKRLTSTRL

[4] = target: Serine/threonine-protein kinase N1 (Homo sapiens) (UniProt Q16512); experiment: Inhibition of human PKN1/PRK1 using KKLNRTLSVA as substrate at 1 uM in presence of 32P-ATP by Hotspot assay relative to control; values are per cent of control
[5] = target: Epidermal growth factor receptor (Homo sapiens) (UniProt P00533); experiment: Inhibition of human EGFR using poly[Glu:Tyr] (4:1) as substrate at 1 uM in presence of 32P-ATP by Hotspot assay relative to control; values are per cent of control
[6] = target: Mitogen-activated protein kinase 3 (Homo sapiens) (UniProt P27361); experiment: Inhibition of human ERK1 using myelin basic protein as substrate at 1 uM in presence of 32P-ATP by Hotspot assay relative to control; values are per cent of control
[7] = target: Macrophage-stimulating protein receptor (Homo sapiens) (UniProt Q04912); experiment: Inhibition of human RON/MST1R using KKSRGDYMTMQIG as substrate at 1 uM in presence of 32P-ATP by Hotspot assay relative to control
Sequence of Macrophage-stimulating protein receptor (Homo sapiens) (Q04912 25-304 limits assumed): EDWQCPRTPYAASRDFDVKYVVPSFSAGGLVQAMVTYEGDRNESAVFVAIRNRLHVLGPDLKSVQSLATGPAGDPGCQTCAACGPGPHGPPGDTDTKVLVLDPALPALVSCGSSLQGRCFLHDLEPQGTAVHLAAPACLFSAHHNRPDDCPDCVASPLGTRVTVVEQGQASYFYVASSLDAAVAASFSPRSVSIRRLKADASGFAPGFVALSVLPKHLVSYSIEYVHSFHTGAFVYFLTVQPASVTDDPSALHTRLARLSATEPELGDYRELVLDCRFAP
Sequence of Macrophage-stimulating protein receptor (Homo sapiens) (Q04912 310-1400 limits assumed): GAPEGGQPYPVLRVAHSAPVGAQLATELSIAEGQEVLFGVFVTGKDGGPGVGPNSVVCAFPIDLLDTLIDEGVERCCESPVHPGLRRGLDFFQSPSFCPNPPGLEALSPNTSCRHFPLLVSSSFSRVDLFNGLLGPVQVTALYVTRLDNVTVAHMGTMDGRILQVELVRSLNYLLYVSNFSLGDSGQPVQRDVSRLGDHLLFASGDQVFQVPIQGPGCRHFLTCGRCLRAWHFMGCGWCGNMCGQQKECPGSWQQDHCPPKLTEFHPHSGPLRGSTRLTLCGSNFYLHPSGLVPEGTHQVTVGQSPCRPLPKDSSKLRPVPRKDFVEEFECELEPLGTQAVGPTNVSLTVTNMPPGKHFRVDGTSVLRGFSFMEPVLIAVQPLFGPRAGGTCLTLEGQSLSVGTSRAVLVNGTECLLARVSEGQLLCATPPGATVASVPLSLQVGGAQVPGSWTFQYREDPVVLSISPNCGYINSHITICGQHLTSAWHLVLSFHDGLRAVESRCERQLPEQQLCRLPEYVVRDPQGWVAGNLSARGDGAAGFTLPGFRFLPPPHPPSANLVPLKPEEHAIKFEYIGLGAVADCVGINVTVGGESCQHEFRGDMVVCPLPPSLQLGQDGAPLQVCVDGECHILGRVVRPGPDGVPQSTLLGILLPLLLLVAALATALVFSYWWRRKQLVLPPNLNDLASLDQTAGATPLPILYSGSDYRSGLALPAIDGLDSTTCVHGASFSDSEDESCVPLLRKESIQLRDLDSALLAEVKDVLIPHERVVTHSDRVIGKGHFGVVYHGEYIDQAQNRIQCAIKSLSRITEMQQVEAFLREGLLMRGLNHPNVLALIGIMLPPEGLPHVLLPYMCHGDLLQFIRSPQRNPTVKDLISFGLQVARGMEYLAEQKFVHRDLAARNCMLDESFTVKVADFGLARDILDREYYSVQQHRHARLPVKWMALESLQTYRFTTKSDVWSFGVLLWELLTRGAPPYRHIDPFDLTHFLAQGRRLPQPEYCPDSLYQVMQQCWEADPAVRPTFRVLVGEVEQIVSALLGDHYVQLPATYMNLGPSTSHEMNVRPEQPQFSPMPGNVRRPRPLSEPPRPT

[8] = target: Casein kinase I isoform gamma-2 (Homo sapiens) (UniProt P78368); experiment: Inhibition of human CK1g2 using KRRRAL[pS]VASLPGL as substrate at 1 uM in presence of 32P-ATP by Hotspot assay relative to control; values are per cent of control
Sequence of Casein kinase I isoform gamma-2 (Homo sapiens) (P78368 whole entry, looked up, canonical isoform): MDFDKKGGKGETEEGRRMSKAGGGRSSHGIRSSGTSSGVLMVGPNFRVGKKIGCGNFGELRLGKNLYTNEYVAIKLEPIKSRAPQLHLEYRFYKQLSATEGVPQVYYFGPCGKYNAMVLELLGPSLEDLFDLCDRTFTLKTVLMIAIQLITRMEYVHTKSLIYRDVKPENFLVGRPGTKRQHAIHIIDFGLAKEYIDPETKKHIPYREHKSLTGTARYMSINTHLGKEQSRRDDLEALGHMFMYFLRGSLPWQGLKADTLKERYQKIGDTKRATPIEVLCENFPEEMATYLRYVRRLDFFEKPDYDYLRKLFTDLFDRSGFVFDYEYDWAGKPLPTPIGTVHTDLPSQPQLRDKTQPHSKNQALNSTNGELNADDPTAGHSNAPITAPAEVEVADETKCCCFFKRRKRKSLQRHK

[9] = target: T1, cAMP-dependent protein kinase catalytic subunit PRKX (Homo sapiens) (UniProt P51817); experiment: Inhibition of human PRKX using LRRASLG as substrate at 1 uM in presence of 32P-ATP by Hotspot assay relative to control; values are per cent of control
T1 sequence (whole entry): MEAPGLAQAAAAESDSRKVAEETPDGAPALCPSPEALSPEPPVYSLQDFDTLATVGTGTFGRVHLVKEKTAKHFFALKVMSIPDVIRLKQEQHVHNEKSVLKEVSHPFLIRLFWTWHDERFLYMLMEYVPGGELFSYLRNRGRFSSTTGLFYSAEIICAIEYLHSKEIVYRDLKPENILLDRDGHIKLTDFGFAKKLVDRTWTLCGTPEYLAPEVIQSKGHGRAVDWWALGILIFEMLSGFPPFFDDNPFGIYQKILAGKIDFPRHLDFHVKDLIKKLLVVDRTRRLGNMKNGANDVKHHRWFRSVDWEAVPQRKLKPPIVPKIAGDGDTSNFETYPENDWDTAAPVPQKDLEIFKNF

[10] = target: Interleukin-1 receptor-associated kinase 1 (Homo sapiens) (UniProt P51617); experiment: Inhibition of human IRAK1 using myelin basic protein as substrate at 1 uM in presence of 32P-ATP by Hotspot assay relative to control; values are per cent of control
Sequence of Interleukin-1 receptor-associated kinase 1 (Homo sapiens) (P51617 whole entry, looked up): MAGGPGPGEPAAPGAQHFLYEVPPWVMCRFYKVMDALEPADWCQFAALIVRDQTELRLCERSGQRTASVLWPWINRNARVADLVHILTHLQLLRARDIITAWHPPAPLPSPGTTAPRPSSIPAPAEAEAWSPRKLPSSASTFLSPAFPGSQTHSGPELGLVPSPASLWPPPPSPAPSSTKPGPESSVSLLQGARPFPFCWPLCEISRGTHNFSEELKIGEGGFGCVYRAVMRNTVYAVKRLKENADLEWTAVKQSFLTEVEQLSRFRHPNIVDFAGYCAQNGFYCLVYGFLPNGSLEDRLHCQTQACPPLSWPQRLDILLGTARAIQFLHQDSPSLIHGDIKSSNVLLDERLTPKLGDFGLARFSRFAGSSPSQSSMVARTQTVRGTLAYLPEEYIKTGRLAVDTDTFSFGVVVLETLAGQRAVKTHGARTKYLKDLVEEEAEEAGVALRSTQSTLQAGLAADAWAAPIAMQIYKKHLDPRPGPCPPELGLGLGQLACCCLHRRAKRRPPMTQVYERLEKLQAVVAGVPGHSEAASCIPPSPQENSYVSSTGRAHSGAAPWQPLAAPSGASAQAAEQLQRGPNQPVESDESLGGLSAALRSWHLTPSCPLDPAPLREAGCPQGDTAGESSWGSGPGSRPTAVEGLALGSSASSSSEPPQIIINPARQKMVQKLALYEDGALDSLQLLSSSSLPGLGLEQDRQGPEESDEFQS

[11] = target: Serine/threonine-protein kinase B-raf (Homo sapiens) (UniProt P15056); experiment: Inhibition of human BRAF using MEK1 (K97R) as substrate at 1 uM in presence of 32P-ATP by Hotspot assay relative to control; values are per cent of control
Sequence of Serine/threonine-protein kinase B-raf (Homo sapiens) (P15056 whole entry): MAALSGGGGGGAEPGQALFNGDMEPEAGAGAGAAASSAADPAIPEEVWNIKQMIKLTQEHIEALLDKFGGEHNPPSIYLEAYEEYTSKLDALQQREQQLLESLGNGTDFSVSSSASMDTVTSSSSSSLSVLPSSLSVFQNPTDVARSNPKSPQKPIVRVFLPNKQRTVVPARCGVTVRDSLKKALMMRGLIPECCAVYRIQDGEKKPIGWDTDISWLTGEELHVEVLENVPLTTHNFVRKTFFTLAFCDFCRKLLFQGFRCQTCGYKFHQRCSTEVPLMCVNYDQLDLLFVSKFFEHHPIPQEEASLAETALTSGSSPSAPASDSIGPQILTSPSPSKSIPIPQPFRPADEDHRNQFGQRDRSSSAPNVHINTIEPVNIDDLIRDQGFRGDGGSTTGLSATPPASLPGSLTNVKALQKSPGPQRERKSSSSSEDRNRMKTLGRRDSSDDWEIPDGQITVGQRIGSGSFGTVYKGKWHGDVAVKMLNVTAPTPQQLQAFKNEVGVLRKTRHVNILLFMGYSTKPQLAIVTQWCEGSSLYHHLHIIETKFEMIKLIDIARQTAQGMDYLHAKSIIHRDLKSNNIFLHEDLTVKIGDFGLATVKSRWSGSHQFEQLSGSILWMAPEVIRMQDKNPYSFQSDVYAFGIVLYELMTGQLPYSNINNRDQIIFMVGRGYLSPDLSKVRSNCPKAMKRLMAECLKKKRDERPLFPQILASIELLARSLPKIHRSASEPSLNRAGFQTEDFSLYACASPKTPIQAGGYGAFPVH

[12] = target: Serine/threonine-protein kinase pim-2 (Homo sapiens) (UniProt Q9P1W9); experiment: Inhibition of human PIM2 using RSRHSSYPAGT as substrate at 1 uM in presence of 32P-ATP by Hotspot assay relative to control; values are per cent of control
[13] = target: T2, 3-phosphoinositide-dependent protein kinase 1 (Homo sapiens) (UniProt O15530); experiment: Inhibition of human PDK1/PDPK1 using KTFCGTPEYLAPEVRREPRILSEEEQEMFRDFDYIADWC as substrate at 1 uM in presence of 32P-ATP by Hotspot assay relative to control; values are per cent of control
T2 sequence (whole entry): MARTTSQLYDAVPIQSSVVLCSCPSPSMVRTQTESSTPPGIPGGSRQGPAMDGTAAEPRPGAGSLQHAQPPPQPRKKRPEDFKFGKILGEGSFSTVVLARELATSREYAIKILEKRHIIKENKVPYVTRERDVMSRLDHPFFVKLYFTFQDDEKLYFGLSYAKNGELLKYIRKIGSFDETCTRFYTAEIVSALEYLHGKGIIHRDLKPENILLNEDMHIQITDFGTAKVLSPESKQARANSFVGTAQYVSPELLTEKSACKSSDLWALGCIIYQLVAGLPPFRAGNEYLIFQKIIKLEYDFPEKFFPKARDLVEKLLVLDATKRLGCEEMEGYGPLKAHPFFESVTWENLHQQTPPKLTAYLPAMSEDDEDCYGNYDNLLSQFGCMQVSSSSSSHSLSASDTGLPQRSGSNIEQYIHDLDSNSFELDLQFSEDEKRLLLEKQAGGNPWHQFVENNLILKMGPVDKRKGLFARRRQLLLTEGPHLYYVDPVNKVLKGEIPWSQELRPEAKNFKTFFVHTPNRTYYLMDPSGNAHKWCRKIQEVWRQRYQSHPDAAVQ

[14] = target: Calcium/calmodulin-dependent protein kinase kinase 2 (Homo sapiens) (UniProt Q96RR4); experiment: Inhibition of human CAMKK2 using myelin basic protein as substrate at 1 uM in presence of 32P-ATP by Hotspot assay relative to control; values are per cent of control
[15] = target: Fibroblast growth factor receptor 2 (Homo sapiens) (UniProt P21802); experiment: Inhibition of human FGFR2 using poly[Glu:Tyr] (4:1) as substrate at 1 uM in presence of 32P-ATP by Hotspot assay relative to control; values are per cent of control
Sequence of Fibroblast growth factor receptor 2 (Homo sapiens) (P21802 22-821 limits assumed): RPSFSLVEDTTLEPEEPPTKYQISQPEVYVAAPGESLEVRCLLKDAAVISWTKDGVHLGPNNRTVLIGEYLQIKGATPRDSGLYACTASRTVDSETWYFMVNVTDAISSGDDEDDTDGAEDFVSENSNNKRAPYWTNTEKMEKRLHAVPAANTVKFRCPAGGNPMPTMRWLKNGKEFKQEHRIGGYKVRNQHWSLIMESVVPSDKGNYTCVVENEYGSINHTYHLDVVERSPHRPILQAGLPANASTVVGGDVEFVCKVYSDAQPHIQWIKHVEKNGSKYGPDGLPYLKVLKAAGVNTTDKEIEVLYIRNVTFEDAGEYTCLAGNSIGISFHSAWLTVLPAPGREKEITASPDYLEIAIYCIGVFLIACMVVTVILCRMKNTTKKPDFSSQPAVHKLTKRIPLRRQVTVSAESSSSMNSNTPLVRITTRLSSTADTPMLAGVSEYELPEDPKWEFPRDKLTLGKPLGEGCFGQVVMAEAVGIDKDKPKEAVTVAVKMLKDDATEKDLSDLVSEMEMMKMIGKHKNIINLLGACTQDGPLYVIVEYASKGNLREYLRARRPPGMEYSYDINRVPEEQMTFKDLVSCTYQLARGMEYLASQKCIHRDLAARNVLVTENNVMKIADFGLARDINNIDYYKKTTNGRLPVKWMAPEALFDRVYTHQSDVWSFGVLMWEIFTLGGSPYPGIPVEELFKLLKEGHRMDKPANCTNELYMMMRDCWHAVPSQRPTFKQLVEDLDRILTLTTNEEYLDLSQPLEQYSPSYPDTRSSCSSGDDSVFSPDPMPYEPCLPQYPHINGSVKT

[16] = target: Hepatocyte growth factor receptor (Homo sapiens) (UniProt P08581); experiment: Inhibition of human c-MET using poly[Glu:Tyr] (4:1) as substrate at 1 uM in presence of 32P-ATP by Hotspot assay relative to control; values are per cent of control

SMILES | residual activity [1] | residual activity [2] | residual activity [3] | residual activity [4] | residual activity [5] | residual activity [6] | inhibition [7] | residual activity [8] | residual activity [9] | residual activity [10] | residual activity [11] | residual activity [12] | residual activity [13] | residual activity [14] | residual activity [15] | residual activity [16]
CC(C)S(=O)(=O)c1ccc2nccc(Nc3ccc4scnc4c3)c2c1 | 95.6% | 101% | 96% | 95.3% | 90.7% | 89.9% | 56.6% | 100% | 101% | 102% | 90.2% | 94.9% | 98.6% | 92.3% | 73.7% | 86.2%
Cc1cc(-c2cnc(N)c3c(-c4ccc5scnc5c4)csc23)n(C)n1 | 97.9% | 98.2% | 103% | 96.7% | 93.9% | 93.3% | 91.3% | 79.1% | 94.2% | 90% | 79.6% | 93.7% | 101% | 87.7% | 61.7% | 76.8%
CNC(=O)c1ccc2c(c1)ncn2-c1ccc(CC(=O)OC(C)(C)C)cc1 | 96.3% | 96.6% | 97.1% | 97.7% | 97.7% | 94.7% | 97.8% | 91.8% | 93.6% | 78.6% | 96.1% | 90.8% | 100% | 87.7% | 66.7% | 92.4%
